Values joined by “and” are separate entries in the source; they are usually repeats but may differ in a detail not shown here. Equal values may be shown once. Read-outs that look alike come from different tables or passages of the source.
Columns and labels:
wt-CFTR [1] = molecular target: T1, wt-CFTR (Homo sapiens, UniProt P13569)
Description: FIGS. 3A and B show recordings of the potentiation of wild-type (wt) and ΔF508-CFTR channel activity by genistein. […]
(§1) Cell culture: NIH/3T3-CFTR, NIH/3T3-ΔF508, and NIH/3T3 mock cells (generous gifts from Dr. Richard Mulligan of Children's Hospital and Medical Center, Harvard Medical School) were grown as described [Bradbury et al., 1992] at 37° C. and 5% CO2 in Dulbecco's modified Eagle's medium-H21 supplemented with 10% new-born calf serum, 4 mM glutamine, 25 mM glucose, 100 μg/ml penicillin, 100 μg/ml streptomycin, and 50 μg/ml gentamicin. Cells were maintained in T75 flasks, passaged at 90-95% confluency, and split one to four. For measurements of I^- efflux and in vivo phosphorylation, cells were seeded onto 35-mm dishes at […]. For patch-clamp experiments, cells were grown on coverglass chips in 35-mm culture dishes. Media were replaced 24 hours after plating and thereafter every 48 hours. In all cases, media were changed on the day before I^- efflux studies, NIH/3T3-ΔF508 cells were transferred to 27° C. three days before use, and 1 day prior to study, media were supplemented with 5 mM butyrate. For patch-clamp studies, where a constant level of functional ΔF508-CFTR was not essential, NIH/3T3-ΔF508 cells were cultured at 27° C. for 2-6 days before use. Calu-3 cells were grown and maintained as described by Hunter [1995].
Electrophysiology: CFTR channel currents were recorded at room temperature (~22° C.) with a patch-clamp amplifier (EPC-9, Heka Electronic), filtered at 100 Hz with a built-in three-pole Bessel filter, and stored on videotapes. Data were subsequently refiltered at 25 Hz with an eight-pole Bessel filter (Frequency Device, Havervill, Mass.) and captured onto a hard disk at a sampling rate of 50 Hz. […] Patch-clamp electrodes were made from Corning 7052 glass capillaries (Warner Instrument, Hammed, Conn.). The pipette resistance was usually 3-5 M.OMEGA., and the seal resistance was >20 G.OMEGA.. The pipette solution contained (in mM) 140 N-methyl-D-glucamine chloride (NMDG-C1), 2 MgCl2, 5Ca Cl2, and 10 HEPES (pH 7.4 with NMDG). The superfusion solution contained (in mM) 150 […], 2 MgCl2, 1 EGTA, 5 glucose, and 5 HEPES (pH 7.4 with NaOH). In excised inside-out patch experiments, the bath solution contained (in mM) 130 MNDG-Cl, 10 EGTA, 10 HEPES, 20 tetraethylammonium chloride, 8 Tris, and 2 MgCl2 (pH 7.4 with NMDG). Pipette potential was held at 50 mV relative to the bath. Downward deflections represent channel opening.
Statistics: Mean currents and variance were estimated with Igor (Wavemetrics, Lake Oswego, Oreg.). Parameters for mean current-variance relationships and dose-response curves were obtained from least-square fitting with Sigmaplot (Jandel, San Rafael, Calif.). Po was calculated from patches containing a single channel by dividing the open channel current amplitude with the mean-current amplitude.

wt-CFTR [2] = molecular target: T1, wt-CFTR; assay: cell-based; assay type: cell-based; design: expressed in transfected cells
Description: FIG. 1 is a graph representing the dose-responses relationship for forskolin-dependent I^- efflux. Peak rates of I^- efflux in the presence (closed symbols) or absence (open symbols) of 50 μM genistein were obtained with NIH/3T3-cystic fibrosis transmembrane conductance regulator (NIH/3T3-CFTR) (circles) and NTH/3T3-Δphenylalanine 508 (ΔF508) cells (triangles). NIH/3T3-CFTR cells are cultured at 37° C. NIH/3T3-Δ508 cells are cultured at 27° C. for 3 days prior to assay. Data are mean values±SE (n>5). Lines were fit by nonlinear least squares.
as §1
I^- efflux: I^- efflux was measured as described previously [Reenstra et al., 1996]. Briefly, cells were incubated for 30 minutes with 37° C. I^- efflux buffer [(in mM) 141 NaCl, 4 KCl, 1 KH2 PO4, 0.9 MgCl2, 1.7 CaCl2. 10 N-2hydroxyethylpiperazine-N'-2-ethanesulfonic acid (HEPES), 25 glucose pH 7.4] containing 5 μCi/ml carrier-free ^125 I^- (sodium salt). Extracellular ^125 I^- was removed by washing four times with efflux buffer, and the rate of loss of intracellular ^125 I^- was determined by replacing the bathing solution with 37° C. efflux buffer every 60 seconds for 12 minutes. Time-dependent rates of ^125 I^- efflux are calculated from R=ln(^125 I^-t1 /^125 I^-t2)/(t1-t2), where ^125 I^-t is the intracellular ^125 I^- at time t and t1 and t2 are successive time points. Dose-response curves were obtained from peak rates of 125I^- efflux by nonlinear least squares fitting to R=[Ro +Rmx ·([fsk]/K1/2)]/[1+([fsk]/K1/2)], where Ro and Rmx are the rates of ^125 I efflux at zero and infinite concentration of forskolin (fsk), and K1/2 is the concentration of agonist that gives a half-maximal change.
To investigate effects of genistein on CFTR activity, the rates of I^- efflux were measured from stably transfected NIH/3T3 cells expressing wt- and ΔF508-CFTR (NIH/33-CFTR and NIH/3T3-ΔF508 cells, respectively).

ΔF508-CFTR = ΔF508-CFTR (Homo sapiens, UniProt P13569, DEL508-508); assay: Mean current-variance analysis of macroscopic currents, NIH/3T3-ΔF508 cells; assay type: cell-based; design: expressed in transfected cells; host or cells: NIH/3T3 cells, stably transfected (NIH/3T3-ΔF508, gift of Dr. Richard Mulligan)
Description: FIGS. 4A and B are graphs showing the variance analysis of macroscopic currents for wt- and ΔF508-CFTR wherein (A) is a plot of variance as a function of mean-current amplitude for NIH/3T3-CFTR(.circle-solid.) and NIH/3T3-ΔF508 (.smallcircle.) cells stimulated with 10 μM forskolin plus 50 μM genistein. (B) is a plot of variance as a function of mean-current amplitude for NIH/3T3-CFTR (.circle-solid.) and NIH/3T3-ΔF508 (.smallcircle.) cells stimulated with 10 μM forskolin. Lines are least square regressions.
Electrophysiology: CFTR channel currents were recorded at room temperature (~22° C.) with a patch-clamp amplifier (EPC-9, Heka Electronic), filtered at 100 Hz with a built-in three-pole Bessel filter, and stored on videotapes. Data were subsequently refiltered at 25 Hz with an eight-pole Bessel filter (Frequency Device, Havervill, Mass.) and captured onto a hard disk at a sampling rate of 50 Hz. […] Patch-clamp electrodes were made from Corning 7052 glass capillaries (Warner Instrument, Hammed, Conn.). The pipette resistance was usually 3-5 M.OMEGA., and the seal resistance was >20 G.OMEGA.. […]
Statistics: Mean currents and variance were estimated with Igor (Wavemetrics, Lake Oswego, Oreg.). […] Po was calculated from patches containing a single channel by dividing the open channel current amplitude with the mean-current amplitude. […] Calculated values are presented as means±SE. […]

T1 sequence (P13569 whole entry): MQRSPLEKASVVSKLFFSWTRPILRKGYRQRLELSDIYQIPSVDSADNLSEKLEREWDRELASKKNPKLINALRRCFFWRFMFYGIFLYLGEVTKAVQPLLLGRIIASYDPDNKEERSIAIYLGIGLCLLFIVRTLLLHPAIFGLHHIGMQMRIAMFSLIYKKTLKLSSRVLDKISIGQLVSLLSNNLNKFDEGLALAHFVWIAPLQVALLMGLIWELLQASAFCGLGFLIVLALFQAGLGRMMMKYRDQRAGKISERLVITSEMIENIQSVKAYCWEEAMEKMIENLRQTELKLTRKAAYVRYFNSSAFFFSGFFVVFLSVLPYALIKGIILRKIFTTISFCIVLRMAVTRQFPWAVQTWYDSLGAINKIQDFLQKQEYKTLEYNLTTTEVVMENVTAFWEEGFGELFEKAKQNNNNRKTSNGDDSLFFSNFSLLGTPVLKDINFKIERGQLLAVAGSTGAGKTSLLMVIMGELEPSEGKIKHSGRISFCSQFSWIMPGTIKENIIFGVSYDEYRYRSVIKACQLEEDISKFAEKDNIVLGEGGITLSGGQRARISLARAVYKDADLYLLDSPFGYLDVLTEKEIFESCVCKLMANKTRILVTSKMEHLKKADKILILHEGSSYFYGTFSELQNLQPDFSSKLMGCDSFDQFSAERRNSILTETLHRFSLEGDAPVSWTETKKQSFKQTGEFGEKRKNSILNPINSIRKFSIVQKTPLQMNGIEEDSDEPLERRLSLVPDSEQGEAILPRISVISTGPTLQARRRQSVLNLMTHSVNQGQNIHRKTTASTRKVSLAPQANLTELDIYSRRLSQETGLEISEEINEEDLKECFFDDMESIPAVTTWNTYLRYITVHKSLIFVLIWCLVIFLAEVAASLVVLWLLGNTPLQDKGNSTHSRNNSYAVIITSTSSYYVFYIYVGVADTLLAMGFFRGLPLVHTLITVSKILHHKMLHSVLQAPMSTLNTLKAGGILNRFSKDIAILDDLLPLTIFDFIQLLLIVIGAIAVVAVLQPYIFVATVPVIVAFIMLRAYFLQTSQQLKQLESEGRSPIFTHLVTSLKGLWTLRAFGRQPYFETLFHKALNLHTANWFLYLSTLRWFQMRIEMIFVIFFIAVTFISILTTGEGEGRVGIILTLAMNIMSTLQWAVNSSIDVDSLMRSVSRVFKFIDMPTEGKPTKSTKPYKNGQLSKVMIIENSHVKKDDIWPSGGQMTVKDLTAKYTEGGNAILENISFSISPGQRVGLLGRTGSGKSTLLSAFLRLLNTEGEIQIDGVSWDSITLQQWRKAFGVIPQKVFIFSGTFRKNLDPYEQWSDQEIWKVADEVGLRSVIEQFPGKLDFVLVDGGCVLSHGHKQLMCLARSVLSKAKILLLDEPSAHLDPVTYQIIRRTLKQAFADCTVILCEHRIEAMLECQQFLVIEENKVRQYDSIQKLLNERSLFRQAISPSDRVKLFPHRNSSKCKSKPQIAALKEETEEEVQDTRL
Chain of ΔF508-CFTR (P13569 with tags, fused parts or gaps DEL508-508): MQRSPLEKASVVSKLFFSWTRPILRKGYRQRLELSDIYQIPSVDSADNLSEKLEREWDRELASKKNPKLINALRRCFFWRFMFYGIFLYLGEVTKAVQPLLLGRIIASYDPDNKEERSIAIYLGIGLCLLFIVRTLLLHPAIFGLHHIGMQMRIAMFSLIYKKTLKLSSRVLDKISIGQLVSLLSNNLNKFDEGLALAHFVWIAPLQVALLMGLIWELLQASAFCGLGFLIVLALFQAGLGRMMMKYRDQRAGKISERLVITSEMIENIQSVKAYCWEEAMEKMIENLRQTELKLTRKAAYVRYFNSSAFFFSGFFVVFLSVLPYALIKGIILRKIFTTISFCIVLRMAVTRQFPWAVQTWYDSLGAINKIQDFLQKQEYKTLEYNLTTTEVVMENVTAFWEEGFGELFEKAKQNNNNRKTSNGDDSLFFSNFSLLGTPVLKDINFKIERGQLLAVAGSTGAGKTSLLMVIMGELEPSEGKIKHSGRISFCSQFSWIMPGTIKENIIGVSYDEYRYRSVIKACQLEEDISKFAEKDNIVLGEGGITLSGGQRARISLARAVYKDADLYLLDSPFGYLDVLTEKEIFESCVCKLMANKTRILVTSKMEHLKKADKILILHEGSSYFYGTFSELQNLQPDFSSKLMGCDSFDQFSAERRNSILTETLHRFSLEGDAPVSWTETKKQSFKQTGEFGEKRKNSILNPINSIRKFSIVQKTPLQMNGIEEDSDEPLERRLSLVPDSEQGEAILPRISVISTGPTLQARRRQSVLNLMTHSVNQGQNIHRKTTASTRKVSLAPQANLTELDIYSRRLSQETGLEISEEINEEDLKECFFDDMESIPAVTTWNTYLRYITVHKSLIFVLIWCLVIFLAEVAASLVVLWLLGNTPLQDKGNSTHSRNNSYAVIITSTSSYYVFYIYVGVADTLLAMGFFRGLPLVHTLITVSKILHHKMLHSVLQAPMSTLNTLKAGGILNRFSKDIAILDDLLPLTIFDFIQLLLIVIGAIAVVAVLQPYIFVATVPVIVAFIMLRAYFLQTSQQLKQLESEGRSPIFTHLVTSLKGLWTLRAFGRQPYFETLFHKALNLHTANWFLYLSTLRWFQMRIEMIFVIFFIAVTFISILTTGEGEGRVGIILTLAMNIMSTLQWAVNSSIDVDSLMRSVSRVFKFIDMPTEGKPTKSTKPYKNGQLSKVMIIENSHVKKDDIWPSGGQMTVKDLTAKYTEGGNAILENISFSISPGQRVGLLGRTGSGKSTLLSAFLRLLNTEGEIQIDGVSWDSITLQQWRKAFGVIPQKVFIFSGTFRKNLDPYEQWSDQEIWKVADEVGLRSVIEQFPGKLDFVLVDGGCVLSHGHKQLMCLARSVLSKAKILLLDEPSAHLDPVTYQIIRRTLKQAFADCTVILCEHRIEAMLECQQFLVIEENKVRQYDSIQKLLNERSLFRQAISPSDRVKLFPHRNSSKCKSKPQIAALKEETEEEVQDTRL

Structure (SMILES): O=c1c(-c2ccc(O)cc2)coc2cc(O)cc(O)c12 [Genistein, 4',5,7-trihydroxyisoflavone]
- macroscopic current (wt-CFTR [1]; 5 μM genistein with 50 nM forskolin): ~ 7.5 pA
- average increase in mean-current amplitude by genistein (wt-CFTR [1]; 50 μM genistein on 10 μM forskolin, NIH/3T3-CFTR, 50 µM): 3.9±0.4 fold and 3.3±0.4 fold
- increase of forskolin-dependent wt-CFTR activity by genistein (wt-CFTR [1]; 50 μM genistein, NIH/3T3-CFTR cells incubated at 27° C. for 2-6 days, n=13): 3.1±0.3 fold
- increase of wt-CFTR current by genistein (wt-CFTR [1]; multichannel patches, 50 nM forskolin, n=6): 21±6 fold
- effect on I- efflux at high forskolin concentrations (wt-CFTR [2]; 50 μM genistein, high forskolin): had no effect at high forskolin concentrations
- slope of variance vs mean current (proportional to 1-Po) (ΔF508-CFTR; 10 μM forskolin and 50 μM genistein): 0.16±0.03 pA

Structure (SMILES): C=C[C@@]1(C)CC(=O)[C@]2(O)[C@@]3(C)[C@@H](O)CCC(C)(C)[C@@H]3[C@H](O)[C@H](OC(C)=O)[C@@]2(C)O1 [forskolin]
- single-channel current steps observed (wt-CFTR [1]; 50 nM forskolin): ≤ 4
- EC50 (wt-CFTR [2]): 110 ± 30 nM
- stimulation of normal CFTR activity (wt-CFTR [2]): stimulates normal CFTR activity very well
- maximal fold induction at 10 µM (wt-CFTR [2]; mouse, read-out: maximal stimulation of I- efflux): 8.2 ± 0.4
- EC50 (wt-CFTR [2]; read-out: K1/2 of forskolin for I- efflux in presence of genistein, with 50 μM genistein, NIH/3T3-CFTR cells): 50 ± 20 nM
- slope of variance vs mean current (proportional to 1-Po) (ΔF508-CFTR; 10 μM forskolin): 0.72±0.06 pA

From US5948814A, “Genistein for the treatment of cystic fibrosis” (priority 1998, dated 1999)
